From patent US7056656B1, “Tat-derived oligourea and its method of production and use in high affinity and specific binding HIV-1 TAR RNA” (priority 1999, dated 2006)

How the values were obtained:
[1] = tested on: HIV-1 TAR RNA (wild-type); experiment: Specificity of oligourea-TAR complex formation by competition with unlabeled TAR RNAs; type: binding
From the text: (§1) FIG. 2A: Secondary structure of wild-type TAR RNA used in this study. Wild-type TAR RNA spans the minimal sequences that are required for Tat responsiveness in vivo ^14 and for in vitro binding of Tat-derived peptides.^9 Wild-type TAR contains two non-wild-type base pairs to increase transcription by T7 RNA polymerase. Mutant M0 TAR contained no bulge residue in its sequence. In mutant G26C, a base-pair in the upper stem of TAR RNA, G26-C39 was substituted by C26-G39. FIG. 2B: Electrophoretic mobility shift analysis for the Tat-derived oligourea binding to wild-type and trinucleotide bulge mutant (M0) TAR RNA. 5′-end labeled TAR RNAs (40 nM) were heated to 85° C. for three minutes mm and then cooled to room temperature in TK buffer (50 mM Tris-HCl pH 7.4), 20 mM KCl, 0.1% Triton X-100). The oligourea (150 nM) was added to wild-type or mutant TAR and incubated at room temperature for one hour. After adding 30% glycerol, the oligourea-RNA complexes were resolved on a non-denaturing 12% acrylamide gel and visualized by autoradiography or phosphorimaging. FIG. 2C: Specificity of the oligourea-TAR complex formation determined by competition experiments. Oligourea-RNA complexes were formed in the presence of increasing concentrations of unlabeled wild-type or mutant TAR RNAs. Concentrations of the competitor RNAs in lanes 3, 4, 5, 6 were 50, 100, 150, and 200 nM, respectively. Lanes 1 and 2 were marker lanes showing RNA and oligoureaRNA complexes. Oligourea-RNA complexes are labeled as R—P.
Specificity of the oligourea-TAR RNA complex formation was addressed by competition experiments (FIG. 2c).
Two base-pairs immediately above the pyrimidine bulge are critical for Tat recognition.^9 To determine whether the oligourea recognizes specific base-pairs in the stem region of TAR RNA or only a trinucleotide bulge containing RNA, we synthesized a TAR mutant where the G26-C39 base pair was substituted by a C26-G39 base-pair (FIG. 2a).

[2] = tested on: Tat transactivation (HIV-1 LTR); experiment: Inhibition of Tat transactivation, CAT activity from integrated HIV-1 LTR of HL3TI cells; type: cell-based; conditions: luciferase as control
Description: FIG. 4. […] CAT activity expressed from the integrated HIV-1 LTR of HL3TI Cells with increasing amounts of oligourea is shown. Luciferase activity was a control experiment to monitor the transfection inhibition of pSV2Tat by the addition of oligourea. CAT and Luciferase activities were measured from multiple experiments and normalized to 100%.

[3] = tested on: mutant TAR RNA without the bulge residues (M0); experiment: Electrophoretic mobility shift analysis with trinucleotide bulge mutant (M0) TAR RNA; type: binding, HIV-1; conditions: M0 TAR RNA 40 nM, oligourea 150 nM
From the text: as §1, with “Lanes 1 and 2 were marker lanes showing RNA and oligoureaRNA complexes. Oligourea-RNA complexes are labeled as R—P.” left out

[4] = tested on: HIV-1 TAR RNA (wild-type); experiment: Direct and competition electrophoretic mobility assays, oligourea/peptide-TAR RNA complexes; type: binding; conditions: for Kd: multiple sets of experiments, read-out: KD (equilibrium dissociation constant) for TAR RNA
From the text: as §1
To compare the RNA-binding affinities of the oligourea to natural peptide, we synthesized a tat-derived peptide (Tyr47 to Arg57) containing the RNA-binding domain of Tat protein (FIG. 1). Dissociation constants of the Tat peptide-RNA complexes were determined from multiple sets of experiments under the same conditions used for oligourea-TAR RNA complexes. […] A relative dissociation constant (KREL) can be determined by measuring the ratios of wild-type Tat peptide to the oligourea dissociation constants (KD) for TAR RNA.

proteinase K [5] = molecular target: T1, proteinase K (Parengyodontium album, UniProt P06873); experiment: Proteinase K digestion of RNA crosslink products (protease stability); type: in vitro ADME; conditions: 55° C., fifteen minutes after UV irradiation
Description: FIG. 3. Site-specific photocrosslinking reaction of TAR RNA labeled with 4-thioUracil at position 23 with the oligourea. For photochemical reactions, RNA duplex was prepared by hybridizing two strands.^5,7 Strand 1 of the duplex was 5′-end labeled with 32p Preformed RNA duplexes (40 nM) in the absence or presence of the oligourea (100 nM) were irradiated ([…]) and analyzed by denaturing gels as described earlier.^5,7 Proteinase K digestion was performed at 55° C. for fifteen minutes after LW irradiation. R—R and R—P XL indicate the RNA—RNA and RNA-oligourea crosslink, respectively.
To probe the oligourea-RNA interactions and determine the proteolysis stability of oligourea, we synthesized TAR RNA containing 4-thioU at position 23 and performed photocrosslinking experiments as described earlier (FIG. 3).^5,7 Irradiation of the oligourea-RNA complex yields a new band with electrophoretic mobility less than that of the RNA (lane 4). Both the oligourea and UV (360 nm) irradiation are required for the formation of this crosslinked RNA-oligourea complex (see lanes 3 and 4). Since the crosslinked oligourea-RNA complex is stable to alkaline pH (9.5), high temperature (85° C.) and denaturing conditions (8M urea, 2% SDS), we conclude that a covalent bond is formed between TAR RNA and the oligourea during the crosslinking reaction.

proteinase K [6] = molecular target: T1, proteinase K; conditions: similar proteinase K treatment; cited from earlier work
[7] = molecular target: Tat-derived oligourea (unnatural urea backbone carrying Tat 48-57 side chains) (HIV-1) (UniProt P04608); experiment: EMSA
[8] = tested on: Tat peptide (47-57), arginine-rich RNA-binding domain (HIV-1); experiment: EMSA; conditions: printed 0.78+0.05; same conditions as the oligourea

T1 sequence (P06873 106-384): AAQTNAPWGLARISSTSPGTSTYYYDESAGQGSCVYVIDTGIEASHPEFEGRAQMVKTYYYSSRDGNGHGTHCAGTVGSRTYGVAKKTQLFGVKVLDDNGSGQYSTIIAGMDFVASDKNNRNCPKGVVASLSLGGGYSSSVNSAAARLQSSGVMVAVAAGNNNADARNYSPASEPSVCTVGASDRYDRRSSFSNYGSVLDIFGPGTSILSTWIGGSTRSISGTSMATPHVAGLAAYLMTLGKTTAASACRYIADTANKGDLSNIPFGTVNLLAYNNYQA

GRKKRRQRRR [oligourea]
competition by mutant TAR (G26C) for oligourea binding to TAR RNA ([1]; competitor G26C TAR RNA (G26-C39 replaced by C26-G39)): did not inhibit | competition by mutant TAR RNA without a trinucleotide bulge for oligourea binding to wild-type TAR RNA ([1]; competitor M0 TAR RNA 50-200 nM): not able to compete | competition by mutant TAR RNA with one base bulge for oligourea binding to wild-type TAR RNA ([1]; competitor one base bulge TAR RNA, data not shown): not able to compete | oligourea-RNA complex formation on addition of unlabeled wild-type TAR RNA ([1]; competitor wild-type TAR RNA 50-200 nM): inhibited | Tat transactivation (CAT activity) with increasing amounts of oligourea [2]: Inhibition of Tat transactivation | binding to mutant TAR RNA without the bulge residues [3]: failed to bind | relative dissociation constant KREL (ratio of wild-type Tat peptide KD to oligourea KD for TAR RNA) ([4]; wild-type TAR RNA): 7.09 | binding to TAR RNA (mobility shift) ([4]; wild-type TAR RNA 40 nM, oligourea 150 nM): able to bind TAR RNA | Kd ([4]; wild-type TAR RNA): 110 ± 70 nM | stability of RNA crosslink products to proteinase K digestion (proteinase K [5]): completely stable

Tat peptide (47–57): tat-derived peptide (Tyr47 to Arg57) containing the RNA-binding domain of Tat protein [reference compound]
Kd ([4]; wild-type TAR RNA): 780 nM

Tat: Tat of the Tat-TAR photocrosslink products from earlier cited work (ref. 5)
stability of Tat-TAR photocrosslink products to proteinase K treatment (proteinase K [6]): complete loss of RNA-protein crosslink

wild-type TAR RNA
Kd [7]: 110 nM | Kd [8]: 780 nM
